Values of other authors in patent US20250019715A1, “Ribosomal Biosynthesis Of Moroidin Peptides In Plants” (Whitehead Institute for Biomedical Research, priority 2021, published 2025).
Ends that are not written are not given here.

Key:
pain sensation = conditions: isolated as pain-causing agent from Dendrocnide moroides
tubulin polymerization = conditions: qualitative statement from prior knowledge

Compound | pain-causing activity (pain sensation) | inhibitory activity against tubulin polymerization (tubulin polymerization)
CC(C)C[C@@H]1NC(=O)[C@@H](NC(=O)[C@@H]2CCC(=O)N2)[C@@H](C(C)C)c2ccc3c4c([nH]c3c2)-n2cnc(c2)C[C@@H](C(=O)O)NC(=O)CNC(=O)[C@H](CCCN=C(N)N)NC(=O)[C@H](C4)NC(=O)[C@H](C(C)C)NC1=O [moroidin] | pain-causing agent | potent inhibitory activity
celogentin C (QLLVWPRH; bridge (positions not given here); also: bicyclic crosslinks, places not given here) [moroidin structural analog from Celosia argentea, core peptide QLLVWPRH] | – | potent inhibitory activity
